Reference: US20060079453A1, “Hla binding peptides and their uses” (priority 2002, published 2006)
Read-outs that look alike come from different tables or passages of the source. No end group written: not given here.

How the values were obtained:
Assay in all cases: biochemical
Assay type in all cases: binding
HLA-DR DRB1*0101 (DR1) = HLA-DR DRB1*0101 (DR1) (Homo sapiens, UniProt P01903+P01911, A100R/D57E/F55L/F60I/F76Y/I96L/L162R/M171V/P40L/Q125E/R42F/V115G/Y59C)
HLA-DR DRB1*0401 (DR4) = HLA-DR DRB1*0401 (DR4) (Homo sapiens, UniProt P01903+P01911, A100K/A169T/F76Y/I96L/K127E/L162R/M171V/N62H/P40V/Q125Y/R42H/S133A/S149N/S66Y/V115G/V209L/W38E)
HLA-DR DRB1*0701 (DR7) = HLA-DR DRB1*0701 (DR7) (Homo sapiens, UniProt P01903+P01911, A100R/A102G/A103Q/D57E/D86V/E43K/F76Y/K127E/L162R/M171V/P40G/Q125H/Q99D/R33Q/R42Y/R54Q/S133A/S66F/T210M/V115G/Y107V/Y59L/Y89S)
HLA-DR DRB1*0802 (DR8) = HLA-DR DRB1*0802 (DR8) (Homo sapiens, UniProt P01903+P01911, A100R/A103L/A169T/F76Y/H45Y/I96F/K41T/L162R/M171V/P40S/Q125H/Q178H/Q39Y/Q99D/R218S/R42G/S66Y/V115G/W38E)
HLA-DR DRB1*1302 (DR13) = HLA-DR DRB1*1302 (DR13) (Homo sapiens, UniProt P01903+P01911, A100E/A169T/K41T/L162R/M171V/P40S/Q125H/Q178H/Q39Y/Q99D/R42S/S66N/T262R/V115G/W38E/Y61H)
HLA-DR DRB1*1302 (DR13), sequence (P01903 26-254 limits assumed, other chains not shown): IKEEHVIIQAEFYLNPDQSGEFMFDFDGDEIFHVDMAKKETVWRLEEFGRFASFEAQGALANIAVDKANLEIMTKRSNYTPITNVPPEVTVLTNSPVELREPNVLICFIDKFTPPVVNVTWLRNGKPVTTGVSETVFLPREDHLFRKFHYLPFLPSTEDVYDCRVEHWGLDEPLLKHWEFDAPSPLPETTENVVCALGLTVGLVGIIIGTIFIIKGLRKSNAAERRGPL

HLA-DR DRB1*1501 (DR15) = HLA-DR DRB1*1501 (DR15) (Homo sapiens, UniProt P01903+P01911)
HLA-DR DRB4*0101 (DR53) = HLA-DR DRB4*0101 (DR53) (Homo sapiens, UniProt P01903+P13762, G164S)
HLA-DR DRB5*0101 (DR51) = HLA-DR DRB5*0101 (DR51) (Homo sapiens, UniProt P01903+Q30154); settings: DRB5 *0101
HLA-DR DRB1*0901 (DR9) = HLA-DR DRB1*0901 (DR9) (Homo sapiens, UniProt P01903+P01911, A100R/A103E/D57H/D86V/F55Y/F60I/F76Y/I96F/K127E/L162R/M171V/P40D/Q125H/Q99R/R33Q/R42F/S133A/S66N/T210M/V115G/W38K/Y107V/Y59G/Y89S)
HLA-DR DRB1*1101 (DR11) = HLA-DR DRB1*1101 (DR11) (Homo sapiens, UniProt P01903+P01911, A100R/A169T/A87E/I96F/K41T/L162R/M171V/P40S/Q125H/Q178H/Q39Y/Q99D/R42S/S66Y/T262R/V115G/W38E); settings: DRB1 *1101
HLA-DR DRB1*1101 (DR11), sequence (P01903 26-254 limits assumed, other chains not shown): as above

HLA-DR DRB1*0301 (DR3) = HLA-DR DRB1*0301 (DR3) (Homo sapiens, UniProt P01903+P01911, A100K/A102G/A103R/A169T/F55Y/I96L/K41T/L162R/M171V/P40S/Q125H/Q178H/Q39Y/R42S/S66N/T106N/T262R/W38E/Y61H)
HLA-DR DRB1*0301 (DR3), sequence (P01903 26-254 limits assumed, other chains not shown): as above

Compound	IC50 (HLA-DR DRB1*0101 (DR1); DRB1 *0101)	IC50 (HLA-DR DRB1*0401 (DR4); DRB1 *0401)	IC50 (HLA-DR DRB1*0701 (DR7); DRB1 *0701)	IC50 (HLA-DR DRB1*0802 (DR8))	IC50 (HLA-DR DRB1*1302 (DR13); DRBI *1302)	IC50 (HLA-DR DRB1*1501 (DR15); DRBI *1501)	IC50 (HLA-DR DRB4*0101 (DR53); DRB4 *0101)	IC50 (HLA-DR DRB5*0101 (DR51))	IC50 (HLA-DR DRB1*0701 (DR7); read-out: DRB1 *0701)	IC50 (HLA-DR DRB1*0802 (DR8); read-out: DRB1 *0802)	further results
QKILIKIPVTKNIIT	993 nM	303 nM	534 nM	2240 nM	332 nM	3610 nM	953 nM	297 nM	–	–	–
CC[C@H](C)[C@H](NC(=O)[C@H](CCCCN)NC(=O)[C@H](C)NC(=O)[C@@H]1CCCN1C(=O)[C@H](CCC(=O)O)NC(=O)[C@H](CO)NC(=O)[C@H](CC(C)C)NC(=O)[C@H](CCCNC(=N)N)NC(=O)[C@H](CC(C)C)NC(=O)[C@H](CC(C)C)NC(=O)[C@H](CCSC)NC(=O)[C@H](CC(C)C)NC(=O)[C@H](CC(=O)O)NC(=O)[C@@H](N)Cc1c[nH]cn1)C(=O)N[C@H](C(=O)O)[C@@H](C)O	16 nM	3060 nM	109 nM	544 nM	0.83 nM	–	12 nM	–	–	–	IC50 (HLA-DR DRB1*0901 (DR9); DRB1 *0901): 43 nM
FIHFFTWGTMFVPKY	–	273 nM	489 nM	1700 nM	328 nM	2380 nM	–	9610 nM	–	–	–
FENLVAENVKPPKVD	56 nM	2370 nM	120000 nM	> 25000 nM	3030 nM	> 50800 nM	9300 nM	62700 nM	–	–	–
YEALIKLLPFSKRIR	55 nM	1840 nM	3580 nM	180 nM	230 nM	36 nM	15 nM	11 nM	–	–	–
KPAVYTKVVHYRICWI	–	–	–	–	–	–	–	–	2400 nM	53 nM	IC50 (HLA-DR DRB1*0101 (DR1); read-out: DRB1 *0101): 5000 nM; IC50 (HLA-DR DRB1*0901 (DR9); read-out: DRB1 *0901): 3680 nM
IGYYDAQKLLEKMGG	–	12600 nM	> 83300 nM	8240 nM	5730 nM	1980 nM	13600 nM	–	–	–	IC50 (HLA-DR DRB1*0901 (DR9); DRB1 *0901): 47200 nM; IC50 (HLA-DR DRB1*1101 (DR11)): > 28600 nM
VLFLQMMNVNLQKQL	6.3 nM	30 nM	8440 nM	56800 nM	8.6 nM	8200 nM	12 nM	> 7210 nM	–	–	–
MSAMTNLAALFPPEG	–	–	–	–	–	–	–	–	36100 nM	73900 nM	IC50 (HLA-DR DRB1*0401 (DR4); read-out: DRB1 *0401): 700 nM; IC50 (HLA-DR DRB1*0901 (DR9); read-out: DRB1 *0901): > 187000 nM
PRWLCAGALVLAGGF	46 nM	> 20000 nM	766 nM	26500 nM	20200 nM	–	883 nM	40800 nM	–	–	IC50 (HLA-DR DRB1*0901 (DR9); DRB1 *0901): 1440 nM; IC50 (HLA-DR DRB1*1101 (DR11)): > 40000 nM
MTNLAALFPPEGVS	–	–	–	–	–	–	–	–	> 125000 nM	39200 nM	IC50 (HLA-DR DRB1*0101 (DR1); read-out: DRB1 *0101): 24 nM; IC50 (HLA-DR DRB1*0401 (DR4); read-out: DRB1 *0401): > 40000 nM; IC50 (HLA-DR DRB1*0901 (DR9); read-out: DRB1 *0901): 22800 nM
TAWTIVRVEILRYFY	–	–	–	–	–	–	–	–	29 nM	57200 nM	IC50 (HLA-DR DRB1*0101 (DR1); read-out: DRB1 *0101): 7.8 nM; IC50 (HLA-DR DRB1*0301 (DR3); read-out: DRB1 *0301): 3000 nM; IC50 (HLA-DR DRB1*0401 (DR4); read-out: DRB1 *0401): 44 nM
KCEFQDAYVILLSEKK	14 nM	73 nM	336 nM	489 nM	> 10300 nM	> 47600 nM	> 19600 nM	20 nM	–	–	IC50 (HLA-DR DRB1*0301 (DR3)): 5790 nM
YILLKKILSSRFNQM	220 nM	183 nM	8.3 nM	18 nM	–	26 nM	340 nM	83 nM	–	–	–
SFLQNPQTSLCCFRK	–	–	–	–	–	–	–	–	7030 nM	7070 nM	IC50 (HLA-DR DRB1*0301 (DR3); read-out: DRB1 *0301): 1830 nM; IC50 (HLA-DR DRB1*0401 (DR4); read-out: DRB1 *0401): 671 nM
DSSIEGNYTLRVDCT	–	–	–	–	–	–	–	–	14500 nM	> 163000 nM	IC50 (HLA-DR DRB1*0901 (DR9); read-out: DRB1 *0901): > 187000 nM
LKELIKVGLPSFENL	99 nM	163 nM	542 nM	1490 nM	–	361 nM	110 nM	41300 nM	–	–	–
VAQVRGGMVFELANS	–	–	–	–	–	–	–	–	4450 nM	> 98000 nM	IC50 (HLA-DR DRB1*0401 (DR4); read-out: DRB1 *0401): 662 nM; IC50 (HLA-DR DRB1*0901 (DR9); read-out: DRB1 *0901): 499 nM
LDIYQKLYIKQEEQK	2830 nM	1490 nM	> 88300 nM	1200 nM	4350 nM	47 nM	70 nM	6960 nM	–	–	–
ILFLVKMNALRRLPV	0.8 nM	5.6 nM	56 nM	19 nM	–	1.4 nM	7.6 nM	14 nM	–	–	–
VEALYLVCGERGFLY	14 nM	–	5350 nM	10600 nM	1870 nM	–	19 nM	5150 nM	–	–	IC50 (HLA-DR DRB1*0901 (DR9); DRB1 *0901): 3060 nM; IC50 (HLA-DR DRB1*1101 (DR11)): 55400 nM
CC[C@H](C)[C@H](NC(=O)[C@H](Cc1ccc(O)cc1)NC(=O)[C@@H]1CCCN1)C(=O)N[C@@H](CC(C)C)C(=O)N[C@@H](CC(C)C)C(=O)N[C@H](C(=O)N[C@@H](CO)C(=O)N[C@@H](CO)C(=O)N[C@@H](CCCCN)C(=O)N[C@H](C(=O)N[C@@H](CO)C(=O)N[C@H](C(=O)N[C@H](C(=O)N[C@@H](CCCCN)C(=O)N[C@@H](CC(=O)O)C(=O)O)C(C)C)[C@@H](C)O)C(C)C)C(C)C	–	–	–	12 nM	–	–	–	32 nM	–	–	IC50 (HLA-DR DRB1*0101 (DR1)): 1.1 nM; IC50 (HLA-DR DRB1*0401 (DR4)): 64 nM; IC50 (HLA-DR DRB1*0701 (DR7)): 38 nM; IC50 (HLA-DR DRB1*1302 (DR13)): 7.2 nM; IC50 (HLA-DR DRB1*1501 (DR15)): 22 nM; IC50 (HLA-DR DRB4*0101 (DR53)): 107 nM
ALLIIPPKIHISIEL	648 nM	1740 nM	8.4 nM	12000 nM	–	1820 nM	10 nM	7140 nM	–	–	–
